Reference: the NIST ThermoML archive (doi:10.1021/je800609u)
Numbers after ± are expanded uncertainties.

Experiment: osmotic coefficient (dimensionless); mn = molality of the nth substance listed, in mol/kg
Conditions: Liquid, vapor pressure osmometery method

CCCCn1cc[n+](C)c1.[I-] [1-butyl-3-methylimidazolium iodide] + O
osmotic coefficient
Conditions	298.15 K	308.15 K	318.15 K	328.15 K
m1 = 0.0133	0.833 ± 0.013	0.856 ± 0.013	0.899 ± 0.013	0.91 ± 0.012
m1 = 0.0293	0.821 ± 0.014	0.843 ± 0.013	0.888 ± 0.013	0.889 ± 0.013
m1 = 0.0442	0.792 ± 0.014	0.821 ± 0.014	0.88 ± 0.013	0.885 ± 0.013
m1 = 0.0505	0.784 ± 0.014	0.814 ± 0.014	0.869 ± 0.013	0.878 ± 0.013
m1 = 0.0786	0.766 ± 0.015	0.788 ± 0.014	0.845 ± 0.013	0.861 ± 0.013
m1 = 0.0995	0.761 ± 0.015	0.78 ± 0.014	0.819 ± 0.014	0.833 ± 0.013
m1 = 0.1307	0.751 ± 0.015	0.765 ± 0.015	0.782 ± 0.014	0.807 ± 0.014
m1 = 0.1782	0.711 ± 0.016	0.734 ± 0.015	0.758 ± 0.015	0.778 ± 0.014
m1 = 0.216	0.697 ± 0.016	0.714 ± 0.016	0.74 ± 0.015	0.768 ± 0.015
m1 = 0.3257	0.644 ± 0.017	0.662 ± 0.017	0.706 ± 0.016	0.715 ± 0.016
m1 = 0.4065	0.613 ± 0.018	0.645 ± 0.017	0.682 ± 0.016	0.69 ± 0.016
m1 = 0.5184	0.596 ± 0.019	0.626 ± 0.018	0.644 ± 0.017	0.662 ± 0.017
m1 = 0.6452	0.564 ± 0.02	0.581 ± 0.019	0.61 ± 0.018	0.619 ± 0.018
m1 = 0.7509	0.554 ± 0.02	0.566 ± 0.019	0.574 ± 0.019	0.586 ± 0.019
m1 = 0.8786	0.528 ± 0.021	0.553 ± 0.02	0.558 ± 0.02	0.569 ± 0.019
m1 = 1.154	0.47 ± 0.022	0.501 ± 0.021	0.521 ± 0.021	0.528 ± 0.021
m1 = 1.837	0.405 ± 0.024	0.413 ± 0.024	0.429 ± 0.023	0.45 ± 0.023
m1 = 2.589	0.362 ± 0.026	0.38 ± 0.025	0.387 ± 0.025	0.408 ± 0.024
